In patent US11485731B2, “Compounds and methods useful in the treatment of a PRMT5-mediated disorder” (ARGONAUT THERAPEUTICS LIMITED, priority 2017, dated 2022):
pIC50: −log10 of the molar value.

Molecular target: human PRMT5/MEP50 (Homo sapiens (Human), UniProt O14744)
Test: PRMT5 chemiluminescent assay
Assay type: biochemical
Conditions: human PRMT5/MEP50 expressed in HEK293 cells; biotinylated histone peptides; Histone H4 monomethyl R3 antibody; chemiluminescent readout
Description: A PRMT5 chemiluminescent assay was used to measure the IC50 activity of PRMT5 of the compounds of Examples 1A to 7 above. Biotinylated histone peptides were synthesized and attached to 384-well plates. Compound serial dilutions were performed and added to the assay plate. Histone H4 monomethyl R3 antibody was obtained from Abcam. A master mix for each well was prepared and human PRMT5/MEP50 (expressed in HEK293 cells) diluted in assay buffer to a concentration of 5 ng/μL. The reaction was incubated and slowly rotated for 60 minutes at the point of PRMT5/MEP50 addition. The supernatant from the wells was removed and blocking buffer was added to each well and rotated for 10 minutes. The primary antibody was diluted and added to every well for 60 minutes, before it was removed and the wells washed. The horse raddish peroxidase (HRP)-coupled secondary antibody was diluted and added to each well with an incubation time of 30 minutes. The HRP chemiluminescent substrate was added to every well. The plate was read on a Flourstar Omega BMG Labtech instrument (Ortenberg, Germany) and the analysis of IC50 was performed using the Flourstar Omega BMG Labtech software.

human PRMT5/MEP50, sequence (O14744 whole entry): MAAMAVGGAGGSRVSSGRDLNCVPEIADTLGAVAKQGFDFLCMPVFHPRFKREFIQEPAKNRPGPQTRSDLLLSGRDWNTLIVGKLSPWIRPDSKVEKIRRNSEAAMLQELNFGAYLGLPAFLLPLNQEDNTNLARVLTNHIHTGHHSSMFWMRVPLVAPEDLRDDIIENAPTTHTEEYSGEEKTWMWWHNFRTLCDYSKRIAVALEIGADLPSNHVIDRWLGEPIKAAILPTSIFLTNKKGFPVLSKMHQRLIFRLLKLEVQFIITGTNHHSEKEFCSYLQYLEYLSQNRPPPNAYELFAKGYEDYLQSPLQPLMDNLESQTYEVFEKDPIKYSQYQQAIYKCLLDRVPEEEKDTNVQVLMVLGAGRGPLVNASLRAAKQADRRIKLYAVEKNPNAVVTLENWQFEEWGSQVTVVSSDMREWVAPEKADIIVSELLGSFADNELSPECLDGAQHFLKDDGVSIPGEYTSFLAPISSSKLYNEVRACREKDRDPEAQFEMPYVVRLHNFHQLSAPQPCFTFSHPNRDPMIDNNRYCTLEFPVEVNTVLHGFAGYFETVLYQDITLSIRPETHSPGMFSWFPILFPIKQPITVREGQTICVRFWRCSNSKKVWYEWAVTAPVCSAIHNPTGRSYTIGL
human PRMT5/MEP50, sequence (Q9BQA1 whole entry partner): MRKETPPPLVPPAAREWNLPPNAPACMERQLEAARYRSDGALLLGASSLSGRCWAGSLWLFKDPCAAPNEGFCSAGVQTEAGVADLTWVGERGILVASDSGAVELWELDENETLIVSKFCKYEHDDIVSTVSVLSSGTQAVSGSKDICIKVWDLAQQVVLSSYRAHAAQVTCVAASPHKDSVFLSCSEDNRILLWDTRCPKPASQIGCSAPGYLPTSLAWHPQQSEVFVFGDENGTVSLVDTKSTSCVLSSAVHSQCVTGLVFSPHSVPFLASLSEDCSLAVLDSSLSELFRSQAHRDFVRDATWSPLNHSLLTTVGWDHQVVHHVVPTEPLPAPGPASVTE

pIC50	Structure (SMILES)
5.15	O=C(NC[C@H](O)CN1CCc2ccccc2C1)N1CCCN(C(=O)c2cccs2)CC1 [Example 1AW, (S)-N-(3-(3,4-dihydroisoquinolin-2(1H)-yl)-2-hydroxypropyl)-4-(thiophene-2-carbonyl)-1,4-diazepane-1-carboxamide]
6.23	CN(C)C(=O)C1CCN(C(=O)NC[C@H](O)CN2CCc3ccccc3C2)CC1 [Example 1AX, (S)-N^1-(3-(3,4-dihydroisoquinolin-2(1H)-yl)-2-hydroxypropyl)-N^4,N^4-dimethylpiperidine-1,4-dicarboxamide]
6.51	O=C(NC[C@H](O)CN1CCc2ccccc2C1)N1CCC(C(=O)N2CCOCC2)CC1 [Example 1AY, (S)-N-(3-(3,4-dihydroisoquinolin-2(1H)-yl)-2-hydroxypropyl)-4-(morpholine-4-carbonyl)piperidine-1-carboxamide]
6.13	O=C(NCC(O)CN1CCc2ccsc2C1)N1CCC(c2ccccc2)C1 (stereo not shown) [Example 1Af, N-(3-(4,7-dihydrothieno[2,3-c]pyridin-6(5H)-yl)-2-hydroxypropyl)-3-phenylpyrrolidine-1-carboxamide]
5.00	CC(=O)N1CCN(C(=O)NCC(O)CN2CCc3ccccc3C2)CC1 (stereo not shown) [Example 1B, 4-acetyl-N-[2-hydroxy-3-(1,2,3,4-tetrahydroisoquinolin-2-yl)propyl]piperazine-1-carboxamide]
7.01	O=C(NC[C@H](O)CN1CCc2ccccc2C1)N1CCC(c2ccccn2)C1 (stereo partly drawn) [Example 1BA, N-((S)-3-(3,4-dihydroisoquinolin-2(1H)-yl)-2-hydroxypropyl)-3-(pyridin-2-yl)pyrrolidine-1-carboxamide]
4.29	CC(=O)N1CCCN(C(=O)NC[C@@H](O)CN2CCc3ccccc3C2)CC1 [Example 1BB, (R)-4-acetyl-N-(3-(3,4-dihydroisoquinolin-2(1H)-yl)-2-hydroxypropyl)-1,4-diazepane-1-carboxamide]
4.48	COC(=O)N1CCCN(C(=O)NC[C@@H](O)CN2CCc3ccccc3C2)CC1 [Example 1BC, Methyl (R)-4-((3-(3,4-dihydroisoquinolin-2(1H)-yl)-2-hydroxypropyl)carbamoyl)-1,4-diazepane-1-carboxylate]
4.24	CS(=O)(=O)N1CCCN(C(=O)NC[C@@H](O)CN2CCc3ccccc3C2)CC1 [Example 1BD, (R)-N-(3-(3,4-dihydroisoquinolin-2(1H)-yl)-2-hydroxypropyl)-4-(methylsulfonyl)-1,4-diazepane-1-carboxamide]
5.25	O=C(NC[C@H](O)CN1CCc2ccccc2C1)N1CCC(F)(F)CC1 [Example 1BF, (S)-N-(3-(3,4-dihydroisoquinolin-2(1H)-yl)-2-hydroxypropyl)-4,4-difluoropiperidine-1-carboxamide]
5.40	CC1(O)CCN(C(=O)NC[C@H](O)CN2CCc3ccccc3C2)CC1 [Example 1BG, (S)-N-(3-(3,4-dihydroisoquinolin-2(1H)-yl)-2-hydroxypropyl)-4-hydroxy-4-methylpiperidine-1-carboxamide]
6.78	O=C(NC[C@H](O)CN1CCc2ccccc2C1)N1CCCC(O)(c2ccccc2)C1 (stereo partly drawn) [Example 1BH, N-((S)-3-(3,4-dihydroisoquinolin-2(1H)-yl)-2-hydroxypropyl)-3-hydroxy-3-phenylpiperidine-1-carboxamide]
6.40	O=C(NC[C@H](O)CN1CCc2ccccc2C1)N1CCC(O)(c2ccccc2)C1 (stereo partly drawn) [Example 1BI, N-((S)-3-(3,4-dihydroisoquinolin-2(1H)-yl)-2-hydroxypropyl)-3-hydroxy-3-phenylpyrrolidine-1-carboxamide]
6.40	O=C(NC[C@H](O)CN1CCc2ccccc2C1)N1CCCC(n2cccn2)C1 (stereo partly drawn) [Example 1BK, N-((S)-3-(3,4-dihydroisoquinolin-2(1H)-yl)-2-hydroxypropyl)-3-(1H-pyrazol-1-yl)piperidine-1-carboxamide]
5.35	O=C(NC[C@H](O)CN1CCc2ccccc2C1)N1CCCC(n2ccnc2)C1 (stereo partly drawn) [Example 1BL, N-((S)-3-(3,4-dihydroisoquinolin-2(1H)-yl)-2-hydroxypropyl)-3-(1H-imidazol-1-yl)piperidine-1-carboxamide]
5.89	O=C(NC[C@H](O)CN1CCc2ccccc2C1)N1CCCN(S(=O)(=O)c2ccccc2)CC1 [Example 1BM, (S)-N-(3-(3,4-dihydroisoquinolin-2(1H)-yl)-2-hydroxypropyl)-4-(phenylsulfonyl)-1,4-diazepane-1-carboxamide]
6.98	O=C(NC[C@H](O)CN1CCc2ccccc2C1)N1CCCSC(c2ccccc2)C1 (stereo partly drawn) [Example 1BN, N-((S)-3-(3,4-dihydroisoquinolin-2(1H)-yl)-2-hydroxypropyl)-2-phenyl-1,4-thiazepane-4-carboxamide]
5.74	O=C(NC[C@H](O)CN1CCc2ccccc2C1)N1CCCS(=O)(=O)C(c2ccccc2)C1 (stereo partly drawn) [Example 1BO, N-((S)-3-(3,4-dihydroisoquinolin-2(1H)-yl)-2-hydroxypropyl)-2-phenyl-1,4-thiazepane-4-carboxamide 1,1-dioxide]
5.14	O=C(NC[C@H](O)CN1CCc2ccccc2C1)N1CCCOCC1 [Example 1BP, (S)-N-(3-(3,4-dihydroisoquinolin-2(1H)-yl)-2-hydroxypropyl)-1,4-oxazepane-4-carboxamide]
6.31	Cn1cc(C2CCCN(C(=O)NC[C@H](O)CN3CCc4ccccc4C3)C2)ccc1=O (stereo partly drawn) [Example 1BR, N-((S)-3-(3,4-dihydroisoquinolin-2(1H)-yl)-2-hydroxypropyl)-3-(1-methyl-6-oxo-1,6-dihydropyridin-3-yl)piperidine-1-carboxamide]
6.63	O=C(NC[C@H](O)CN1CCc2ccccc2C1)N1CCCC(c2cnccn2)C1 (stereo partly drawn) [Example 1BS, N-((S)-3-(3,4-dihydroisoquinolin-2(1H)-yl)-2-hydroxypropyl)-3-(pyrazin-2-yl)piperidine-1-carboxamide]
6.90	Cc1cc(C2CCCN(C(=O)NC[C@H](O)CN3CCc4ccccc4C3)C2)ccn1 (stereo partly drawn) [Example 1BT, N-((S)-3-(3,4-dihydroisoquinolin-2(1H)-yl)-2-hydroxypropyl)-3-(2-methylpyridin-4-yl)piperidine-1-carboxamide]
7.92	O=C(NC[C@H](O)CN1CCc2ccccc2C1)N1CCCC(c2ccc(F)cc2)C1 (stereo partly drawn) [Example 1BU, N-((S)-3-(3,4-dihydroisoquinolin-2(1H)-yl)-2-hydroxypropyl)-3-(4-fluorophenyl)piperidine-1-carboxamide]
7.24	O=C(NC[C@H](O)CN1CCc2ccccc2C1)N1CCCC(c2cccnc2)C1 (stereo partly drawn) [Example 1BV, N-((S)-3-(3,4-dihydroisoquinolin-2(1H)-yl)-2-hydroxypropyl)-3-(pyridin-3-yl)piperidine-1-carboxamide]
5.54	O=C(NC[C@H](O)CN1CCc2ccccc2C1)N1CCCC(N2CCOCC2)C1 (stereo partly drawn) [Example 1BW, N-((S)-3-(3,4-dihydroisoquinolin-2(1H)-yl)-2-hydroxypropyl)-3-morpholinopiperidine-1-carboxamide]
6.20	O=C(NC[C@H](O)CN1CCc2ccccc2C1)N1CCCC(N2CCSCC2)C1 (stereo partly drawn) [Example 1BX, N-((S)-3-(3,4-dihydroisoquinolin-2(1H)-yl)-2-hydroxypropyl)-3-thiomorpholinopiperidine-1-carboxamide]
5.58	CN1CCN(C2CCCN(C(=O)NC[C@H](O)CN3CCc4ccccc4C3)C2)CC1 (stereo partly drawn) [Example 1BY, N-((S)-3-(3,4-dihydroisoquinolin-2(1H)-yl)-2-hydroxypropyl)-3-(4-methylpiperazin-1-yl)piperidine-1-carboxamide]
5.91	O=C(NCC(O)CN1CCc2ccccc2C1)N1CCN(c2ccccc2)CC1 (stereo not shown) [Example 1C, N-[2-hydroxy-3-(1,2,3,4-tetrahydroisoquinolin-2-yl)propyl]-4-phenylpiperazine-1-carboxamide]
7.24	O=C(NC[C@H](O)CN1CCc2ccccc2C1)N1CCCC(C2CCSCC2)C1 (stereo partly drawn) [Example 1CA, N-((S)-3-(3,4-dihydroisoquinolin-2(1H)-yl)-2-hydroxypropyl)-3-(tetrahydro-2H-thiopyran-4-yl)piperidine-1-carboxamide]

Structure (SMILES)	pIC50
O=C(NC[C@H](O)CN1CCc2ccccc2C1)N1CCC(C(=O)N2C3CCC2COC3)CC1 [Example 1AZ, 4-(3-oxa-8-azabicyclo[3.2.1]octane-8-carbonyl)-N-((S)-3-(3,4-dihydroisoquinolin-2(1H)-yl)-2-hydroxypropyl)piperidine-1-carboxamide]	6.80
O=C(NC[C@@H](O)CN1CCc2ccccc2C1)N1CCC(C(=O)N2C3CCC2COC3)CC1 [Example 1BE, 4-(3-oxa-8-azabicyclo[3.2.1]octane-8-carbonyl)-N-((R)-3-(3,4-dihydroisoquinolin-2(1H)-yl)-2-hydroxypropyl)piperidine-1-carboxamide]	5.51
O=C(NC[C@H](O)CN1CCc2ccccc2C1)N1CCSC(c2ccccc2)C1 (stereo partly drawn) [Example 1BJ, N-((S)-3-(3,4-dihydroisoquinolin-2(1H)-yl)-2-hydroxypropyl)-2-phenylthiomorpholine-4-carboxamide]	6.97
O=C(NC[C@H](O)CN1CCc2ccccc2C1)N1CCCC(c2ccccn2)C1 (stereo partly drawn) [Example 1BQ, N-((S)-3-(3,4-dihydroisoquinolin-2(1H)-yl)-2-hydroxypropyl)-3-(pyridin-2-yl)piperidine-1-carboxamide]	7.32
O=C(NC[C@H](O)CN1CCc2ccccc2C1)N1CCCC(C2CCOCC2)C1 (stereo partly drawn) [Example 1BZ, N-((S)-3-(3,4-dihydroisoquinolin-2(1H)-yl)-2-hydroxypropyl)-3-(tetrahydro-2H-pyran-4-yl)piperidine-1-carboxamide]	6.57
